Test results as given in patent US20090005250A1, “Substituted 2,4-diamino-1,3,5-triazines, processes for their use as herbicides and crop growth regulators” (Bayer CropScience AG, priority 2006, published 2009).

Experiments:
[1] = test system: harmful plants such as Stellaria media, Lolium multiflorum, Amaranthus retroflexus, Sinapis alba, Avena sativa and Setaria viridis; test: Pre-emergence herbicidal action (greenhouse pot test); assay type: in vivo, mono- and dicotyledonous weed plants; details: application rate of 500 g or less of active substance per hectare; scored visually after 3 to 4 weeks in comparison to untreated controls
Text: Seeds or rhizome pieces of mono- and dicotyledonous weed plants were placed in sandy loam in plastic pots and covered with soil. The inventive compounds, which have been formulated in the form of wettable powders or emulsion concentrates, were then applied to the surface of the covering soil as an aqueous suspension or emulsion in different dosages with an application rate of from 600 to 800 l/ha of water (converted). After the treatment, the pots were placed in a greenhouse and kept under good growth conditions for the weeds. The plant or emergence damage is scored visually after the emergence of the test plants after an experiment time of from 3 to 4 weeks in comparison to untreated controls. […] For example, the examples no.

[2] = test system: harmful plants such as Sinapis alba, Echinochloa crus-galli, Lolium multiflorum, Stellaria media, Cyperus iria, Amaranthus retroflexus, Setaria viridis, Avena …; test: Post-emergence herbicidal action (greenhouse pot test); assay type: in vivo, mono- and dicotyledonous weeds; details: application rate of 500 g and less of active substance per hectare; treated at three-leaf stage; scored visually after approx. 3 to 4 weeks
Method: Seeds or rhizome pieces of mono- and dicotyledonous weeds were placed in sandy loam in plastic pots, covered with soil and grown in a greenhouse under good growth conditions. Three weeks after the sowing, the test plants were treated at the three-leaf stage. The inventive compounds formulated as spray powders or as emulsion concentrates were sprayed onto the green plant parts in various dosages with an application rate of from 600 to 800 l/ha of water (converted). After the test plants had been left to stand in the greenhouse under optimal growth conditions for approx. 3 to 4 weeks, the action of the preparations was scored visually in comparison to untreated controls. The inventive compositions also had good post-emergence herbicidal activity against a wide spectrum of economically important gramineous and broadleaf weeds. For example, examples no.

SMILES	herbicidal action, pre-emergence method [1]	herbicidal action, post-emergence method [2]
CC(C)C(Nc1nc(N)nc(C(C)(C)F)n1)C1CC1 (stereo not shown) [Example 1-475]	very good herbicidal action	very good herbicidal action
CC(C)(F)c1nc(N)nc(NC(C2CCC2)C2CCC2)n1 [Example 1-499]	very good herbicidal action	–
CC(=O)Nc1nc(NC(C2CC2)C2CC2)nc(C(C)(C)F)n1 [Example 2-199]	very good herbicidal action	very good herbicidal action
Cc1nc(N)nc(NC(C2CC2)C2CC2)n1 [Example 1-98]	very good herbicidal action	–
CCC(F)c1nc(N)nc(NC(C2CC2)C2CC2)n1 (stereo not shown) [Example 1-414]	–	very good herbicidal action
CC(C)(F)c1nc(N)nc(NC2CCC3CC32)n1 (stereo not shown) [Example 7-79]	very good herbicidal action	very good herbicidal action
CCC(F)c1nc(N)nc(NC(C2CCC2)C2CCC2)n1 (stereo not shown) [Example 1-420]	very good herbicidal action	very good herbicidal action
CC(C)(F)c1nc(N)nc(NC(C2CC2)C2CC2)n1 [Example 1-493]	very good herbicidal action	very good herbicidal action
CC(F)c1nc(N)nc(NC(C(C)C)C2CC2)n1 (stereo not shown) [Example 1-317]	very good herbicidal action	very good herbicidal action
CN(C)C=Nc1nc(NC(C2CC2)C2CC2)nc(C(C)(C)F)n1 [Example 5-201]	very good herbicidal action	very good herbicidal action
CC(F)c1nc(N)nc(NC(C2CC2)C2CC2)n1 (stereo not shown) [Example 1-335]	very good herbicidal action	very good herbicidal action
Nc1nc(NC(C2CC2)C2CC2)nc(C(F)F)n1 [Example 1-651]	very good herbicidal action	very good herbicidal action
Nc1nc(NC(C2CC2)C2CC2)nc(C2(F)CC2)n1 [Example 1-572]	very good herbicidal action	very good herbicidal action
Nc1ncnc(NC(C2CC2)C2CC2)n1 [Example 1-19]	very good herbicidal action	very good herbicidal action
Nc1nc(NC(C2CC2)C2CC2)nc(C2CC2)n1 [Example 1-256]	–	very good herbicidal action
CC(C)(F)c1nc(N=CN2CCOCC2)nc(NC(C2CC2)C2CC2)n1 [Example 6-199]	very good herbicidal action	very good herbicidal action
